The values below come from patent US20240158472A1, “FERRITIN VARIANTS WITH INCREASED STABILITY AND COMPLEXATION ABILITY” (Cellis AG, priority 2021, published 2024).

In this test the test system is siRNA. Nature of the test: Association of ferritin with siRNA, gel. Format: binding. The method, then: 1 ml reaction containing 2 mg Ft and 4 ug siRNA in DPBS, pH lowered to values as indicated (2.5, 3.2, 4.4, 5.6 and 6.8, respectively). Samples were incubated 15 min in RT, then NaOH was added to adjust pH to neutral (pH 7). Non-associated free siRNA was removed by 4 centrifugation steps on Amicons with 100 kDa cut-off.

As for “Q11E mutant: Examples 3-8 ferritin variant based on Q11E with added K54E, K72E, K87Q, K144E, C91S, C103S and C131S”, the “association with siRNA” value reads like this: (incubated in pH 2.4 and 3.2) “not”; (incubated in pH range 4.4 to 6.8, 2 mg Ft and 4 ug siRNA) “associated with siRNA”.
